Structures are written as SMILES. Values after ≈ are worked out from the molar mass of the structure shown.

The source of these data is PubChem BioAssay AID1996.

The conditions of the data set: buffer; pH 7.4; 200.0 µM.
A word on the kinetic solubility: it is solubility judged after dilution from a stock solution rather than from solid. In turn, `CC(C)CCNC(=O)C(=O)Nc1ccccc1` yielded a solubility (kinetic) of 2.6 µg/mL (≈ 11.1 µM).

Take `Cc1ccc(S(=O)(=O)NCCC(=O)NCCc2ccc(S(N)(=O)=O)cc2)cc1C`: the solubility (kinetic) is over 65.9 µg/mL. The same measure for `O=C(COC(=O)/C=C/c1cccc(F)c1)NC1CC1`: over 39.5 µg/mL. The figure for `Cc1ccc(NC(=O)CNc2cc(S(=O)(=O)N3CCOCC3)ccc2N2CCOCC2)cc1S(=O)(=O)N(C)C` is 5.3 µg/mL (≈ 9.11 µM). In turn, `O=C(NC(=S)NC1CCS(=O)(=O)C1)c1ccccc1F` (stereo not given) showed a kinetic solubility of 44.9 µg/mL (≈ 142 µM). The same measure for `Cc1ccc(CSc2ncnc3onc(C)c23)cc1`: under 0.2 µg/mL; for `COCCNC(=S)N1CCN(S(=O)(=O)c2ccc(Cl)s2)CC1`: 11.4 µg/mL (≈ 29.7 µM); for `Cc1cc(/C=C2/C(=O)NC(=O)N(c3ccc(Br)cc3)C2=O)c(C)n1C`: 5.3 µg/mL (≈ 13.2 µM). The figure for `COc1ccc(S(=O)(=O)N2CCCCC2)cc1NC(=O)COC(=O)c1ccco1` is 5.8 µg/mL (≈ 13.7 µM); for `O=C(Nc1ccccc1)C1CCCCN1S(=O)(=O)c1ccccc1` (stereo not given) it is over 51.7 µg/mL; for `O=S(=O)(NCCc1ccccn1)c1ccc(OC(F)(F)F)cc1` it is 51.9 µg/mL (≈ 150 µM). As to `NC(=O)COC(=O)c1cc([N+](=O)[O-])ccc1NCCO`, the solubility (kinetic) is over 42.5 µg/mL.

The molecule `CCCn1c(SCC(=O)N2CCc3ccccc3C2)nc(O)cc1=O` yielded a kinetic solubility of over 53.9 µg/mL.

For `CC(C)(C)C(=O)NC(CC(=O)O)c1ccccc1` (stereo not given), the kinetic solubility is over 37.4 µg/mL.

`CN(Cc1ccccc1)S(=O)(=O)c1ccc(Cl)c(C(=O)N2CCC(C(N)=O)CC2)c1`: the kinetic solubility is over 67.5 µg/mL. The same measure for `NCCc1c(Cc2ccccc2)[nH]c2ccccc12`: 34.5 µg/mL (≈ 138 µM); for `CCc1ccc(Nc2ncnc3nc[nH]c23)cc1`: over 35.9 µg/mL; for `Cc1ccsc1C(=O)OCC(=O)N(Cc1ccccc1)C(C)C`: 40.2 µg/mL (≈ 121 µM). The same measure for `Cc1ccc(C(CC(=O)O)NC(=O)CCNC(=O)c2ccco2)cc1` (stereo not given): over 51.7 µg/mL; for `O=S(=O)(NC(=S)Nc1ccccc1)c1ccc(F)cc1`: over 46.6 µg/mL. The same measure for `OC1CCNC(=S)N1c1ccccc1` (stereo not given): 30.7 µg/mL (≈ 147 µM); for `COc1c2c(nc3occc13)C(CC=C(C)C)(OC)C(=O)C=C2` (stereo not given): over 47 µg/mL; for `COc1cc(C)cc(CN2CC=C(c3ccccc3)CC2)c1O`: 12.8 µg/mL (≈ 41.4 µM). `COc1ccc(-c2cc3ccccc3[nH]2)cc1` showed a solubility (kinetic) of 1.4 µg/mL (≈ 6.27 µM). The figure for `Cc1ccc(S(=O)(=O)NC(=O)Nc2ccccc2)cc1` is 41.8 µg/mL (≈ 144 µM); for `CC1CCC(NC(=O)CSc2nncn2C)CC1` (stereo not given) it is over 40.3 µg/mL.

`COc1ccccc1CC(=O)Nc1cc(C)ccn1`: the kinetic solubility is over 38.4 µg/mL. For the molecule `CCOC(=O)Nc1cccc(NC(=O)c2ccccc2F)c1`, the kinetic solubility was over 45.3 µg/mL.

On to `CCCC(=O)Nc1nc2c(C)c(Cl)ccc2s1`, for which the solubility (kinetic) is under 0.3 µg/mL. The figure for `Cc1ccc(NC2CCCN(C(=O)c3cccs3)C2)cc1C` (stereo not given) is 47.1 µg/mL (≈ 150 µM); for `Cc1cc(C(=O)CSc2nc(N)cc(=O)[nH]2)c(C)n1CC1CCCO1` (stereo not given) it is over 54.4 µg/mL; for `N#Cc1ccc(CSc2ccccn2)c(Cl)c1` it is 3.4 µg/mL (≈ 13 µM).

On to `CN(Cc1ccccc1)C(=O)COC(=O)/C=C/c1ccc2c(c1)OCO2`, for which the kinetic solubility was 22.3 µg/mL (≈ 63.1 µM). Consider `O=C(Cc1cccc2ccccc12)NCC(=O)Nc1ccccc1F`, for which the solubility (kinetic) amounted to 10.6 µg/mL (≈ 31.5 µM).

Take `O=C(CC1CCCCC1)NCc1ccccc1Cl`: the kinetic solubility worked out at 2.9 µg/mL (≈ 10.9 µM).

On to `O=C(CCc1ccccc1)NCC1OCCc2ccccc21` (stereo not given), for which the kinetic solubility is over 44.3 µg/mL. The figure for `CC1(c2ccc([N+](=O)[O-])cc2)Nc2ccccc2S1` (stereo not given) is 12.1 µg/mL (≈ 44.4 µM). The same measure for `Cc1nc2sc(C(N)=O)c(N)c2c2c1CCCC2`: 9.3 µg/mL (≈ 35.6 µM); for `COc1ccc(OC)c(NC(=O)COC(=O)CCc2nc3ccccc3c(=O)[nH]2)c1`: over 61.7 µg/mL.

Regarding `COc1ccc(S(=O)(=O)N2CCN(C(=O)CC(C)C)CC2)cc1`, the solubility (kinetic) was over 51.1 µg/mL.

The molecule `NC(=O)COc1ccc2cc(-c3ccccc3)c(=O)oc2c1` gave a solubility (kinetic) of 3.8 µg/mL (≈ 12.9 µM). Regarding `COC(=O)c1ccc(CSc2nc3ccccc3c(=O)n2C)o1`, the kinetic solubility was 4.5 µg/mL (≈ 13.6 µM). `C=CCn1c(O)c(C(C)=NCCCN(C)C)c(=O)[nH]c1=O` returned a kinetic solubility of over 44.2 µg/mL. Molecule `CCOC(=O)N1CCN(Cc2ccc3c(c2)OCO3)CC1` had a kinetic solubility of 41.9 µg/mL (≈ 143 µM). The figure for `COC(=O)CSc1nc(NC#N)nc(NC(C)(C)C)n1` is 36.7 µg/mL (≈ 124 µM); for `N#Cc1ccsc1NC(=O)C1=COCCO1` it is over 35.4 µg/mL. The same measure for `O=C(CN1CCOCC1)Nc1ccc(Cl)cc1`: over 38.2 µg/mL. Consider `Cc1ccc(NC(=S)NCc2ccc(Cl)cc2)c(C)c1`, for which the solubility (kinetic) is 2.3 µg/mL (≈ 7.54 µM).

Consider `Cc1cc(C)nc(NC(=O)NC(=O)c2ccccc2)n1`, for which the kinetic solubility is over 40.5 µg/mL.

Regarding `O=C(NCc1ccc(Cl)cc1)C1CCN(c2cnccn2)CC1`, the solubility (kinetic) was over 49.6 µg/mL. The same measure for `CC(C)Cn1c(=O)c2c(nc3n2CCS3)n(C)c1=O`: over 42.1 µg/mL; for `O=C(CNC(=O)c1cccs1)NCCc1ccco1`: over 41.7 µg/mL; for `CC(=O)c1sc(NC(=O)c2ccc3c(c2)OCO3)nc1C`: 0.9 µg/mL (≈ 2.96 µM). The figure for `O=C(Nc1nc2ccccc2[nH]1)c1cccc(Br)c1` is 0.6 µg/mL (≈ 1.9 µM). As to `Fc1ccc(NC(=S)Nc2cccnc2)c(Cl)c1`, the kinetic solubility is over 42.3 µg/mL. The figure for `CCOC(=O)c1cc(CC)sc1NC(=O)COC(=O)C1CCC1` is under 0.7 µg/mL; for `CSC1=NCCN1C(=O)c1ccc(C)cc1` it is over 35.1 µg/mL; for `Fc1ccc(NC(=S)Nc2cccnc2)cc1Cl` it is over 42.3 µg/mL. The figure for `CN(Cc1ccccc1)C(=O)CN1CCCC1=O` is over 36.9 µg/mL; for `Cc1cccc(C2=NOC(=O)/C2=C\c2ccccc2F)c1` it is 6.5 µg/mL (≈ 23.1 µM). The figure for `CC1(N(O)C=C2C=CC(=O)C=C2)CCCCC1=O` (stereo not given) is over 37.1 µg/mL; for `CCCc1nc2ccccc2c(=O)n1CC(=O)c1ccc(F)cc1` it is 2.2 µg/mL (≈ 6.78 µM); for `O=C(O)c1ccc(SCc2ccccc2)nc1` it is over 36.8 µg/mL. The molecule `CCC1(CC)C(=O)N(C)C(=O)NC1=NC` came in with a solubility (kinetic) of over 31.7 µg/mL. The same measure for `COc1cccc(NC(=O)N2CCCCCC2)c1`: over 37.2 µg/mL; for `O=C(NCc1c(Cl)cccc1Oc1ccccc1)c1ccccc1`: 0.9 µg/mL (≈ 2.66 µM).

With `COc1ccc(NC(=O)COC(=O)c2ccc([N+](=O)[O-])o2)cc1Cl`, the solubility (kinetic) is 19.2 µg/mL (≈ 54.1 µM). The figure for `O=C(/C=C/c1ccc([N+](=O)[O-])cc1)NCc1ccc2c(c1)OCO2` is 0.9 µg/mL (≈ 2.76 µM); for `COc1ccc(NC(=O)CCCC(=O)O)cc1Cl` it is over 40.8 µg/mL.

In the case of `Cc1nc(N2CCN(C)CC2)c2cc(-c3ccccc3)sc2n1`, the kinetic solubility came to 1.8 µg/mL (≈ 5.55 µM).

`O=C(COc1ccc(Br)cc1)N1CCc2ccccc2C1` had a solubility (kinetic) of 20.8 µg/mL (≈ 60.1 µM). The figure for `COc1ccc2nc(N/C(N)=N/S(C)(=O)=O)nc(C)c2c1` is 3.1 µg/mL (≈ 10 µM); for `CCN1CCN(C(=O)Cc2ccc(C)cc2)CC1` it is over 37 µg/mL.

In the case of `O=C(COC(=O)c1cccc(O)c1)NC(=O)Cc1ccccc1`, the solubility (kinetic) is over 47 µg/mL. The figure for `O=C(NCC(O)c1ccccc1)c1ccccc1` (stereo not given) is over 36.2 µg/mL. The figure for `Nc1nc2ccccc2cc1S(=O)(=O)c1ccccc1` is 1.1 µg/mL (≈ 3.87 µM); for `Cc1sc(NC(=O)Nc2ccccc2)c(C(N)=O)c1C` it is 5.1 µg/mL (≈ 17.6 µM); for `Cc1ccc(C2(CCNCc3ccco3)CCOC(C(C)C)C2)cc1` (stereo not given) it is over 51.2 µg/mL. The same measure for `CC(C)NC(=O)c1ccccc1NC(=O)Cc1ccc([N+](=O)[O-])cc1`: 19.1 µg/mL (≈ 56 µM); for `Cc1ccc(CNC(=S)NC2CCCCC2)cc1`: 32.3 µg/mL (≈ 123 µM); for `COc1cccc(NC(=O)Cn2cc(C(=O)C3CC3)c3ccccc32)c1`: 0.8 µg/mL (≈ 2.3 µM).

Regarding `O=C(CCNC(=O)c1ccco1)NCCc1c[nH]c2ccccc12`, the solubility (kinetic) worked out at 33.1 µg/mL (≈ 102 µM). The figure for `CN1C(C(=O)Nc2ccccn2)=C(O)c2sc(Cl)cc2S1(=O)=O` is 15.5 µg/mL (≈ 41.7 µM); for `O=C(O)c1ccc(S(=O)(=O)NCc2ccc3c(c2)OCO3)cc1` it is over 50.3 µg/mL; for `COc1ccc(OC)c(NC(=O)NC2CCCCCCC2)c1` it is 2.2 µg/mL (≈ 7.18 µM). `O/N=C\c1ccccc1Oc1ccc(F)cc1` displayed a solubility (kinetic) of 32.3 µg/mL (≈ 140 µM). Regarding `CN(C(=O)c1ccoc1)c1ccc2ccccc2c1`, the kinetic solubility came out at 29.1 µg/mL (≈ 116 µM).

Turning to `CC(C)CN(C(=O)CSc1nc(N)cc(N)n1)C1CCS(=O)(=O)C1` (stereo not given), the solubility (kinetic) was over 56 µg/mL. The figure for `O=C(COC(=O)/C=C/c1ccccc1[N+](=O)[O-])Nc1ccc(S(=O)(=O)N2CCOCC2)cc1` is 24 µg/mL (≈ 50.5 µM); for `NC(=O)c1cn(C2CCCCC2)c2ccccc2c1=O` it is over 40.5 µg/mL; for `Cc1ccc(-c2nc(C=Nc3cccc(C)c3)c(O)o2)cc1` it is 0.7 µg/mL (≈ 2.39 µM). The figure for `CC(Nc1ccc2c(c1)OCCO2)C(=O)N1c2ccccc2CC1C` (stereo not given) is over 50.8 µg/mL. On to `OCCN(Cc1ccccc1)Cc1nc(CC2CC2)no1`, for which the solubility (kinetic) was over 43.1 µg/mL. The figure for `O=C1OCCN1S(=O)(=O)Nc1ccccc1` is over 36.3 µg/mL.

Molecule `COc1ccc(S(=O)(=O)NCC(=O)NC2CC2)cc1OC` came in with a solubility (kinetic) of over 47.2 µg/mL. In turn, `Cc1[nH]c2ccccc2c1C(=O)C(=O)N1CCOCC1` displayed a kinetic solubility of over 40.8 µg/mL. The same measure for `Cc1cc(C)cc(NC(=S)N2CCN(c3ccccn3)CC2)c1`: 9.2 µg/mL (≈ 28.2 µM); for `COc1ccccc1NC(=S)N1CC(C)(C)C1=O`: 3 µg/mL (≈ 11.3 µM).

For `CC1CC(=O)Nc2ccccc2N1S(=O)(=O)c1cccs1` (stereo not given), the kinetic solubility was 17 µg/mL (≈ 52.7 µM). The figure for `CN(C(=O)c1ccc(-c2ccccc2)cc1)C1CCCCC1` is 1.5 µg/mL (≈ 5.11 µM); for `Cc1ccc(S(=O)(=O)/N=C(/c2ccc(F)cc2)N(C)C)cc1` it is over 48.1 µg/mL; for `Cc1occc1C(=O)NCc1nc(-c2ccc(Cl)cc2)no1` it is 37.8 µg/mL (≈ 119 µM). The same measure for `COc1ccc(C(=O)O)cc1S(=O)(=O)NC1CCN(Cc2ccccc2)CC1`: 59.1 µg/mL (≈ 146 µM); for `O=C(O)/C=C\C(=O)NCc1cccnc1`: over 30.9 µg/mL. Regarding `Cc1ccn2c(NC3CCCC3)c(-c3ccccn3)nc2c1`, the kinetic solubility amounted to 30.6 µg/mL (≈ 105 µM).
